According to ChEMBL document CHEMBL5360564, “Small molecule LpxC inhibitors against gram-negative bacteria: Advances and future perspectives” (Eur J Med Chem, 2023):
In brackets after ≈: the same amount, converted by molar mass.

Experiments:
Escherichia coli [1] = experiment: Antibacterial activity against Escherichia coli MB5500 assessed as bacterial growth inhibition; format: functional
Escherichia coli [2] = experiment: Antibacterial activity against Escherichia coli MB4926 assessed as bacterial growth inhibition; format: functional
Escherichia coli [3] = experiment: Antibacterial activity against wild type Escherichia coli W3110 assessed as bacterial growth inhibition measured after 22 hrs by MTT assay; format: functional
Escherichia coli [4] = experiment: Antibacterial activity against Escherichia coli D21 assessed as bacterial growth inhibition measured after 20 hrs by checkerboard method; format: functional
[5] = target: T1, UDP-3-O-acyl-N-acetylglucosamine deacetylase (Escherichia coli K-12, UniProt P0A725); experiment: Inhibition of Escherichia coli LpxC assessed as inhibition constant measured after 30 mins by fluorescence based microplate assay
T1 sequence (P0A725 whole entry): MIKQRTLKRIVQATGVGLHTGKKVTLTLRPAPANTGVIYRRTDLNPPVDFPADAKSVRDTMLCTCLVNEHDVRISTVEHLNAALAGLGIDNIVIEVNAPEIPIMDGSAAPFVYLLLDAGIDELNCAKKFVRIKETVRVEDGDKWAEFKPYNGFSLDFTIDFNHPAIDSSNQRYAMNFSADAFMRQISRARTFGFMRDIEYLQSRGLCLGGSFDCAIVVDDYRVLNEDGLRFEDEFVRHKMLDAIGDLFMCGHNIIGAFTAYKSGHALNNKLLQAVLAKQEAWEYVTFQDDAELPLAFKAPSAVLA

[6] = target: T2, UDP-3-O-acyl-N-acetylglucosamine deacetylase (Pseudomonas aeruginosa, UniProt B5ATN6); experiment: Inhibition of recombinant Pseudomonas aeruginosa LpxC expressed in Escherichia coli
T2 sequence (B5ATN6 whole entry): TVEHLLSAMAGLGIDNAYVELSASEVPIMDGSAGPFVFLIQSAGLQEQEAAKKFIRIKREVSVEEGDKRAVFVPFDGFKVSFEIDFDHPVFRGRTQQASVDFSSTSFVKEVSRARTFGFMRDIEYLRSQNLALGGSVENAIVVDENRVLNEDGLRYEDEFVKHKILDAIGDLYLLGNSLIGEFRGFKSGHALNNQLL

Pseudomonas aeruginosa [7] = experiment: Antibacterial activity against Pseudomonas aeruginosa clinical isolate assessed as bacterial growth inhibition by microdilution assay; format: functional
Klebsiella pneumoniae = experiment: Antibacterial activity against Klebsiella pneumoniae assessed as bacterial growth inhibition two-fold microdilution; format: functional
Escherichia coli [8] = experiment: Antibacterial activity against Escherichia coli assessed as bacterial growth inhibition two-fold microdilution; format: functional
[9] = target: T1, UDP-3-O-acyl-N-acetylglucosamine deacetylase; experiment: Inhibition of Escherichia coli LpxC
Escherichia coli [10] = experiment: Antibacterial activity against Escherichia coli CMCC 44568 assessed as bacterial growth inhibition measured after 22 hrs; format: functional
Pseudomonas aeruginosa [11] = experiment: Antibacterial activity against Pseudomonas aeruginosa CMCC 10104 assessed as bacterial growth inhibition measured after 22 hrs; format: functional
Escherichia coli [12] = experiment: Antibacterial activity against Escherichia coli CMCC 25922 assessed as bacterial growth inhibition measured after 22 hrs; format: functional
Pseudomonas aeruginosa [13] = experiment: Antibacterial activity against Pseudomonas aeruginosa CMCC 27853 assessed as bacterial growth inhibition measured after 22 hrs; format: functional
Pseudomonas aeruginosa [14] = experiment: Antibacterial activity against Pseudomonas aeruginosa PA14 assessed as bacterial growth inhibition measured after 18 hrs by broth microdilution assay; format: functional
Escherichia coli [15] = experiment: Antibacterial activity against Escherichia coli DH5alpha assessed as bacterial growth inhibition measured after 18 hrs by broth microdilution assay; format: functional
Pseudomonas aeruginosa [16] = experiment: Antibacterial activity against Pseudomonas aeruginosa PAO1 assessed as bacterial growth inhibition measured after 18 hrs by broth microdilution assay; format: functional
Pseudomonas aeruginosa [17] = experiment: Antibacterial activity against Pseudomonas aeruginosa HER 1018 assessed as bacterial growth inhibition by twofold dilution method; format: functional
[18] = target: T3, UDP-3-O-acyl-N-acetylglucosamine deacetylase (Aquifex aeolicus (strain VF5), UniProt O67648); experiment: Inhibition of Aquifex aeolicus LpxC transformed in Escherichia coli BL21(DE3) pLysS cells
T3 sequence (O67648 whole entry): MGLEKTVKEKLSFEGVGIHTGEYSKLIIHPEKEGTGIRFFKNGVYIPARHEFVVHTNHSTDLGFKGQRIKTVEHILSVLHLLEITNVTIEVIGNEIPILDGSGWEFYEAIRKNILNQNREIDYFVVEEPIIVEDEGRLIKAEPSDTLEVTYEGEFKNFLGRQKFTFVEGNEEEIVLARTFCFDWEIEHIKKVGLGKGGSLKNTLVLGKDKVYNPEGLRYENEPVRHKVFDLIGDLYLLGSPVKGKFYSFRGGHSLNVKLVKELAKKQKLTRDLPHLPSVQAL

`CCCc1cc(C2=N[C@@H](C(=O)NO)CO2)cc(OC)c1OC` showed an MIC (Escherichia coli [1]) of 1 µg/mL (≈ 3.24 µM) and an MIC (Escherichia coli [2]) of 1 µg/mL (≈ 3.24 µM).
`C[C@@H](O)[C@H](NC(=O)c1ccc(C#CC#Cc2ccccc2)cc1)C(=O)NO` showed an MIC (Escherichia coli [3]) of 0.05 µg/mL (≈ 0.138 µM).
Compound `O=C(NO)[C@@H](Cc1ccc2ccccc2c1)NS(=O)(=O)c1ccc2ccccc2c1` has an MIC (Escherichia coli [4]) of 2 µg/mL.
`O=C(NO)C1(COc2ccc(C#Cc3ccc(CN4CCOCC4)cc3)cc2)CCOCC1` gave a Ki [5] of 352 nM.
In the case of `CC(C)(N)[C@H](NC(=O)c1ccc(C#CC#CC2CC2)cc1)C(=O)NO`, the IC50 [6] is reported as 0.62 nM and the MIC (Pseudomonas aeruginosa [7]) is reported as 0.16 µg/mL.
With `C[C@H](O)c1nccn1Cc1cc(-c2ccc(C#C[C@@H]3[C@H]4CN(CCCC(=O)O)C[C@@H]34)cc2)on1` the MIC (Klebsiella pneumoniae) was 2 µg/mL (≈ 4.34 µM), the MIC (Escherichia coli [8]) was 2 µg/mL (≈ 4.34 µM) and the IC50 [9] was 0.101 µM.
For `N=C(N)N/N=C/c1ccc(C#Cc2ccc(Cl)cc2)cc1`, the MIC (Escherichia coli [10]) was 2 µg/mL (≈ 6.74 µM), the MIC (Pseudomonas aeruginosa [11]) was 1 µg/mL (≈ 3.37 µM) and the MIC (Escherichia coli [12]) was 2 µg/mL (≈ 6.74 µM). For the same compound, the MIC (Pseudomonas aeruginosa [13]) was > 128 µg/mL.
`CC(C)(N)[C@H](NC(=O)c1ccc(C#CC#C[C@H](O)CO)cc1)C(=O)NO` was tested, and the IC50 [6] was 19 nM and the MIC (Pseudomonas aeruginosa [7]) was 3.5 µg/mL.
`O=c1ccn([C@@H]2O[C@H](CO/N=C/c3ccc(O)c(O)c3O)[C@@H](O)[C@H]2O)c(=O)[nH]1` showed an IC50 [9] of 27 µM.
Work on `COC1([C@H](NC(=O)c2ccc(C#CC#CCCO)cc2)C(=O)NO)CS(=O)(=O)C1` yielded an MIC (Pseudomonas aeruginosa [7]) of 2.3 µg/mL.
Compound `C[C@@H](O)[C@](C)(NC(=O)c1ccc(C#CC#Cc2ccc(N)cc2)cc1)C(=O)NO` has an MIC (Escherichia coli [3]) of 0.24 µg/mL (≈ 0.613 µM).
Compound `CC(C)(N)[C@H](NC(=O)c1ccc(C#CC#C[C@@H](O)CO)cc1)C(=O)NO` has an IC50 [6] of 12 nM and an MIC (Pseudomonas aeruginosa [7]) of 8.8 µg/mL.
`N=C(N)N/N=C/c1ccc(C#CC#Cc2ccccc2Cl)cc1` showed an MIC (Escherichia coli [10]) of 64 µg/mL (≈ 200 µM), an MIC (Pseudomonas aeruginosa [11]) of 4 µg/mL (≈ 12.5 µM) and an MIC (Escherichia coli [12]) of 8 µg/mL (≈ 24.9 µM). For the same compound, the MIC (Pseudomonas aeruginosa [13]) was > 128 µg/mL.
Work on `O=C(CO/N=C/c1ccc(O)c(O)c1O)NC[C@H]1O[C@@H](n2ccc(=O)[nH]c2=O)[C@H](O)[C@@H]1O` yielded an IC50 [9] of 120 µM.
`O=C(C[C@@H]1CN(c2ccc(C#Cc3ccccc3)cc2)CO1)NO` gave an MIC (Pseudomonas aeruginosa [14]) of 10 µg/mL (≈ 31 µM), an MIC (Escherichia coli [15]) of 1.25 µM (≈ 0.403 µg/mL) and an MIC (Pseudomonas aeruginosa [16]) of 1.25 µg/mL (≈ 3.88 µM).
Work on `CS(=O)(=O)[C@](F)(CCc1ccc(-c2ccccc2)cc1)C(=O)NO` yielded an MIC (Pseudomonas aeruginosa [17]) of 12.5 µg/mL (≈ 35.6 µM).
With `CCCCCC(=O)O[C@@H]1[C@@H](CP(C)(=O)O)CO[C@H](CO)[C@H]1O` the IC50 [18] was 192 nM.
